Where no end group is shown, it is not given here.
Tested on: primary fetal rat hippocampal neurons
Experiment: Growth of hippocampal neurons, label-free real time cell analysis (RTCA)
Assay type: cell-based
Details: ABPPk2 4, 20, 100 ng/ml
Procedure: (1) Primary culture of fetal rat hippocampal neurons: after a rat pregnant for 17 days was anesthetized, a fetal rat was taken out under sterile conditions; the brain of the fetal rat was taken out on ice; the hippocampus was carefully taken out under a dissecting microscope; and the blood vessel membranes were removed. 0.125% trypsin/EDTA was digested at 37° C. for 10 min, and the digestion was stopped by adding the DMEM complete medium containing 10% FBS. Cell debris were removed through centrifugal at 1000 rpm for 5 min; the DMEM complete medium was added to resuspend the cells; the cells were gently blown until a single cell suspension was formed; and the cells were inoculated at an appropriate density on a culture plate (dish) pre-coated with polylysine (PLL) and cultured at 37° C., 5% CO2 incubator. After 4 h, the cells were adhered to the wall; the DMEM complete medium was discarded and replaced with neurobasal medium containing different concentrations of ABPPk2 (the concentrations of ABPPk2 were 4 ng/ml, 20 ng/ml and 100 ng/ml); the neurobasal medium containing 10 ng/ml BDNF was used as the positive control group, and neurobasal was used as the negative control group. […]

Cys-Leu-Glu-Ser-Gly-Thr-Ser-Cys-Ile-Pro-Gly-Ala-Gln-His-Asn-Cys-Cys-Ser-Gly-Val-Cys-Val-Pro-Ile-Val-Thr-Ile-Phe-Tyr-Gly-Val-Cys-Tyr (CLESGTSCIPGAQHNCCSGVCVPIVTIFYGVCY; disulfide (positions not given here); not fully specified (bridges); also: three disulfide bonds, pairing not given here) [ABPPk2, 33 amino acid polypeptide isolated from the extract of Achyranthes bidentata Blume, three pairs of disulfide bonds]
growth of hippocampal neurons (cell index, RTCA): can promote the growth of the hippocampal neurons and the extension of neurites

Source: patent US20230151065A1, “MULTI-DISULFIDE-BOND LONG-CHAIN PEPTIDE WITH NEURO[…], PHARMACEUTICAL COMPOSITION AND APPLICATION” (priority 2018, published 2023)
